Publication PMC4376724, “Differential Phenotypic and Functional Profiles of TcCA-2 -Specific Cytotoxic CD8^+ T Cells in the Asymptomatic versus Cardiac Phase in Chagasic Patients” (PLoS ONE, 2015)

How the values were obtained:
[1] = tested on: PBMCs from asymptomatic HLA-A*02:01 Chagas disease patients; experiment: HLA-A*02:01 restriction assay: peptide-pulsed K562-A2 cells as APC, IFN-γ secretion by patient PBMC; type: cell-based, human; conditions: range among patients with a positive response; K562-A2 pulsed with 1 mM peptide 1 h, 30 h co-culture; K562 level subtracted
Description: TAP-deficient T2 cells were used for the HLA-A*02:01 binding assays and the K562-A2 cells for the HLA-A*02:01 restriction assay. The cells were cultured in complete RPMI medium supplemented with 10% of inactivated Fetal Calf Serum (iFCS), 2 mM glutamine, and 100 U/ml penicillin. K562-A2 cells, expressing the HLA-A*02:01 molecule were cultured in the presence of […] of G-418, as previously described. The T2 and K562-A2 cells were kindly provided by Dr. Pedro Romero (University of Lausanne) and by Dr Peter Ponsaerts (University of Antwerp, with the permission of Dr. Cedrik Britten from Johanes Gutenberg-University Mainz), respectively.
(§1) For the screening of the recognition of TcCA-2 epitopes by Chagas disease patients, 10 HLA-A*02:01 adult patients in the asymptomatic phase of the disease (IND) were enrolled. For cytotoxicity, functional activity determinations and phenotypic characterization another group of 19 HLA-A*02:01 adults Chagas disease patients and 9 healthy donors were analyzed. These patients were at the chronic stage of the disease and were considered to be at the asymptomatic phase (IND, n = 8) if there was no evidence of having cardiac or gastrointestinal disorders. Chronic Chagas cardiomyopathy patients (CCC, n = 11) were stratified into G1 to G3 stages following Kuschnir classification according to clinical criteria and radiological, electrocardiographic and echocardiography analyses. The number of patients was the one recommended by the Hospital Ethical Committee. […] The patients were enrolled in both studies (functional and phenotypic characterization, IND n = 6 and CCC n = 7) when the available number of purified PBMC (limited by the cellular number isolated from each subject) was enough for both analyses. Another four CCC patients had to be enrolled to perform the phenotypic analysis in order to reach statistical significance.
Cytokine secretion (IL-4, IL-10, IL-6, IFN-γ, TNF-α) was determined in the supernatants of PBMC from Chagas disease patients and healthy donors, after in vitro stimulation with 1 μM of each peptide for 30 h at 37°C in RPMI supplemented with 10% iFBS as explained before. The secretion profile was determined by using a bead-based multiplex immunoassay system (Bio-Plex, Bio-Rad), following the manufacturer's instructions. The response was considered positive if an increase in the secretion of cytokines was at least three folds higher than the secretion by un-stimulated cells (basal secretion level) and at least, 4 pg/mL for IL-4, 2 pg/mL for IL-10, 15 pg/mL for IL-6 and 5 pg/mL for IFN-γ and TNF-α. The positive control consisted of 50 ng/mL Phorbol 12 myristate 13-acetate (PMA) and 500 ng/mL ionomycin (Sigma). Cytokine levels were quantified in each sample by using the Bio-Plex Manager software 4.1 (Bio-Rad). […]

[2] = tested on: PBMC from HLA-A*02:01 Chagas disease patients and healthy donors; experiment: Cytokine secretion test (Bio-Plex multiplex immunoassay) in PBMC supernatants; type: cell-based, human; conditions: 1 μM peptide, 30 h; for IFNγ / IL6 / TNFα: non-peptide control subtracted
Description: as §1
Cytokine secretion (IL-4, IL-10, IL-6, IFN-γ, TNF-α) was determined in the supernatants of PBMC from Chagas disease patients and healthy donors, after in vitro stimulation with 1 μM of each peptide for 30 h at 37°C in RPMI supplemented with 10% iFBS as explained before. The secretion profile was determined by using a bead-based multiplex immunoassay system (Bio-Plex, Bio-Rad), following the manufacturer's instructions. The response was considered positive if an increase in the secretion of cytokines was at least three folds higher than the secretion by un-stimulated cells (basal secretion level) and at least, 4 pg/mL for IL-4, 2 pg/mL for IL-10, 15 pg/mL for IL-6 and 5 pg/mL for IFN-γ and TNF-α. The positive control consisted of 50 ng/mL Phorbol 12 myristate 13-acetate (PMA) and 500 ng/mL ionomycin (Sigma). Cytokine levels were quantified in each sample by using the Bio-Plex Manager software 4.1 (Bio-Rad).
Functional analysis of the epitope-specific CD8^+ T cells was carried out by the determination of the secretion profile of IFN-γ, TNF-α, IL-4, IL10 and IL-6 cytokines. […] CD8^+ T cells from 2 out of 11 patients responded to stimulation with peptide TcCA-2_273-281 by secreting IL-6. […] There was no secretion of IL-4 and IL-10 in PBMC after stimulation with any one of the four TcCA-2 peptides (data not shown). IFN-γ, TNF-α and IL6 cytokines secretion levels were higher in patients at the asymptomatic phase of the disease than in Chagas patients with associated cardiomyopathy.

## ALRNLRVFL [TcCA-2_607-615]
[1]
  INF-γ secretion range: 6.4 to 15.1 pg/mL
[2]; PBMC of Chagas patients, positive = at least three folds non-peptide control and ≥15 pg/mL IL-6, ≥5 pg/mL IFN-γ and TNF-α
  Patients whose cells recognized the peptide by secreting IFN-γ, TNF-α and IL-6: 2 out of the 14
[2]; PBMC of patient CCC I 456
  IFNγ: 3 pg/mL
  IL6: 18 pg/mL
  TNFα: 12 pg/mL
[2]; PBMC of patient CCC I 770
  IFNγ: 0 pg/mL
  IL6: 49 pg/mL
  TNFα: 16 pg/mL
[2]; PBMC of patient CCC I 861
  IFNγ: 0 pg/mL
  IL6: -7 pg/mL
  TNFα: -3 pg/mL
[2]; PBMC of patient CCC I 884
  IFNγ: 0 pg/mL
  IL6: 0 pg/mL
  TNFα: 0 pg/mL
[2]; PBMC of patient CCC II 142
  IFNγ: 0 pg/mL
  IL6: -4 pg/mL
  TNFα: -15 pg/mL
[2]; PBMC of patient CCC III 509
  IFNγ: 0 pg/mL
  IL6: -5 pg/mL
  TNFα: -4 pg/mL
[2]; PBMC of patient CCC III 797
  IFNγ: -5 pg/mL
  IL6: 9 pg/mL
  TNFα: 3 pg/mL
[2]; PBMC of patient IND 265
  IFNγ: 81 pg/mL
  IL6: 1127 pg/mL
  TNFα: 83 pg/mL
[2]; PBMC of patient IND 283
  IFNγ: 15 pg/mL
  IL6: 55 pg/mL
  TNFα: 26 pg/mL
[2]; PBMC of patient IND 365
  IFNγ: 5 pg/mL
  IL6: 23 pg/mL
  TNFα: 23 pg/mL
[2]; PBMC of patient IND 388
  IFNγ: 1 pg/mL
  IL6: 32 pg/mL
  TNFα: -11 pg/mL
[2]; PBMC of patient IND 510
  IFNγ: 0 pg/mL
  IL6: -1 pg/mL
  TNFα: 2 pg/mL
[2]; PBMC of patient IND 535
  IFNγ: 0 pg/mL
  IL6: -5 pg/mL
  TNFα: -1 pg/mL
[2]; PBMC of patient IND 917
  IFNγ: 1 pg/mL
  IL6: -2 pg/mL
  TNFα: -3 pg/mL
[2]; PBMC of subject HD 001
  IFNγ: 1 pg/mL
  IL6: -6 pg/mL
  TNFα: -14 pg/mL
[2]; PBMC of subject HD 004
  IFNγ: 0 pg/mL
  IL6: -5 pg/mL
  TNFα: 0 pg/mL
[2]; PBMC of subject HD 005
  IFNγ: -21 pg/mL
  IL6: -77 pg/mL
  TNFα: -2 pg/mL
[2]; PBMC of subject HD 006
  IFNγ: 13 pg/mL
  IL6: 69 pg/mL
  TNFα: 5 pg/mL
[2]; PBMC of subject HD 008
  IFNγ: 3 pg/mL
  IL6: 22 pg/mL
  TNFα: 0 pg/mL
[2]; PBMC of subject HD 011
  IFNγ: 0 pg/mL
  IL6: -12 pg/mL
  TNFα: -8 pg/mL
[2]; PBMC of subject HD 340
  IFNγ: 0 pg/mL
  IL6: 6 pg/mL
  TNFα: 0 pg/mL
[2]; PBMC of subject HD 664
  IFNγ: -3 pg/mL
  IL6: 0 pg/mL
  TNFα: 0 pg/mL
